Values quoted from earlier work in PMC9851200, “Multiparameter phenotypic screening for endogenous TFEB and TFE3 translocation identifies novel chemical series modulating lysosome function” (Autophagy, 2022).

Experiments:
Set-up in all cases: method as in original PKIS2 published data
[1] = target: kinases (KINOMEscan panel) (Homo sapiens, UniProt P00519); conditions: Published KINOMEscan, ref original PKIS2 published data, cited from earlier work
[2] = target: kinases (KINOMEscan panel) (Homo sapiens, UniProt Q00526); conditions: CDK3; Published KINOMEscan; ref original PKIS2 published data; cited from earlier work
[3] = target: T1, kinases (KINOMEscan panel) (Homo sapiens, UniProt Q12851); conditions: kinase MAP4K2; Published KINOMEscan; ref original PKIS2 published data; cited from earlier work
T1 sequence (Q12851 1-820): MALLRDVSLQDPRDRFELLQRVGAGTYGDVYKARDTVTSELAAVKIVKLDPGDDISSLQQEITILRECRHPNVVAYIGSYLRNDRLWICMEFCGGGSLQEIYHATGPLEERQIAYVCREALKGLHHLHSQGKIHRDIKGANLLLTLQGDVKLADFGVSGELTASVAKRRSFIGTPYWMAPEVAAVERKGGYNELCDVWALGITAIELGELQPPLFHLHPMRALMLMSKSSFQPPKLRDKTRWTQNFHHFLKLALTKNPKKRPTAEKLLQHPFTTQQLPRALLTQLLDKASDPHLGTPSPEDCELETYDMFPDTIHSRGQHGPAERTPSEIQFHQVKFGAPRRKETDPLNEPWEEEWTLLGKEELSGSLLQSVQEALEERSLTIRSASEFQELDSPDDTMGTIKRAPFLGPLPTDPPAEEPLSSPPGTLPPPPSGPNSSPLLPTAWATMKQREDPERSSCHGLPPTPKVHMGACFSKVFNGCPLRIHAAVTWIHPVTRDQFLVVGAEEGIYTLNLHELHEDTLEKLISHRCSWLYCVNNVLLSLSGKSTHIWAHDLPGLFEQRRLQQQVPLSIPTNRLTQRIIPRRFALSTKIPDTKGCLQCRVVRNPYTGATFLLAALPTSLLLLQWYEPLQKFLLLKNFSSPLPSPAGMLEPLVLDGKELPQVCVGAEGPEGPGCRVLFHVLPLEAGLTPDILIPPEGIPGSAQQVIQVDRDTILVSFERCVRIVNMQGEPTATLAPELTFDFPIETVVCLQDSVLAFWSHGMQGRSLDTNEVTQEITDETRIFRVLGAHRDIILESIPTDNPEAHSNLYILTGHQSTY

[4] = target: T2, kinases (KINOMEscan panel) (Homo sapiens, UniProt Q12866); conditions: kinase MERTK; Published KINOMEscan; ref original PKIS2 published data; cited from earlier work
T2 sequence (Q12866 21-999): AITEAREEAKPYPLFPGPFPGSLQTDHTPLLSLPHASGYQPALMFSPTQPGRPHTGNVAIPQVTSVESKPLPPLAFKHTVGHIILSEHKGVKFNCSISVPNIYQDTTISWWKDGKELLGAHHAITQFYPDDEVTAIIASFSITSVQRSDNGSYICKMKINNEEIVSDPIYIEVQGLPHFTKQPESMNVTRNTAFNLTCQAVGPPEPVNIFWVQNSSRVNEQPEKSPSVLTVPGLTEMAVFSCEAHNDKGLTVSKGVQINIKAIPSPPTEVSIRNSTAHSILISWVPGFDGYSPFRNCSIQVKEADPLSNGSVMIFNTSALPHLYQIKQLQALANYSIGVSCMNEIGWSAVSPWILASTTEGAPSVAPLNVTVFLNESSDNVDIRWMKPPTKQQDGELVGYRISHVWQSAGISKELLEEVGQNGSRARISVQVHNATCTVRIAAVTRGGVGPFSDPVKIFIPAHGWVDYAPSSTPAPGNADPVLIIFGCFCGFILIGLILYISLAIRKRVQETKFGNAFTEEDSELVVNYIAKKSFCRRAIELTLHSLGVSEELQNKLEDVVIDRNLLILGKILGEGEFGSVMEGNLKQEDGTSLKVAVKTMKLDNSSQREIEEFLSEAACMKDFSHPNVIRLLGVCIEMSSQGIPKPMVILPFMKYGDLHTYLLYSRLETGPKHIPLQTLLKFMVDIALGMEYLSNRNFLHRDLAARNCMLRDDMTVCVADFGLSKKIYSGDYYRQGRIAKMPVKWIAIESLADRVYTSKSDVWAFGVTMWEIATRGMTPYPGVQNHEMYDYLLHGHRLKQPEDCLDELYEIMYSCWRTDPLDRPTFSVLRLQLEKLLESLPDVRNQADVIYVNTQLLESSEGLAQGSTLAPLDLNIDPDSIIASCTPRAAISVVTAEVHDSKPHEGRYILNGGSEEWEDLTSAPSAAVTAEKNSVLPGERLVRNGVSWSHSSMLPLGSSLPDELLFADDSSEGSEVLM

[5] = target: kinases (KINOMEscan panel) (Homo sapiens, UniProt Q9HAZ1); conditions: kinase CLK4; Published KINOMEscan; ref original PKIS2 published data; cited from earlier work
kinases (KINOMEscan panel) (Homo sapiens, UniProt Q9HAZ1), sequence (Q9HAZ1 whole entry): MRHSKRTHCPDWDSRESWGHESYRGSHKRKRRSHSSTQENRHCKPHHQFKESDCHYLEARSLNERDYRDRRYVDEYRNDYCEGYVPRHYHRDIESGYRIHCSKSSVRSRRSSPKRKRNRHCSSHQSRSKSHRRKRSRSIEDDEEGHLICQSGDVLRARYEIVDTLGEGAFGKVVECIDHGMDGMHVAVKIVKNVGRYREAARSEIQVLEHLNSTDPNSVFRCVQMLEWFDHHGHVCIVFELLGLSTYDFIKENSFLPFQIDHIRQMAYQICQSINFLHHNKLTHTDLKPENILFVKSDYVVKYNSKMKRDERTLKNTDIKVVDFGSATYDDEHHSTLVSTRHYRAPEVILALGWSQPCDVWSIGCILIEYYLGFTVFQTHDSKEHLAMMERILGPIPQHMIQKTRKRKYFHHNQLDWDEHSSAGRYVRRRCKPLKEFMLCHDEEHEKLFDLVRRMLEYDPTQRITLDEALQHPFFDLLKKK

kinases (KINOMEscan panel) (Homo sapiens, UniProt P00519), sequence (P00519 whole entry): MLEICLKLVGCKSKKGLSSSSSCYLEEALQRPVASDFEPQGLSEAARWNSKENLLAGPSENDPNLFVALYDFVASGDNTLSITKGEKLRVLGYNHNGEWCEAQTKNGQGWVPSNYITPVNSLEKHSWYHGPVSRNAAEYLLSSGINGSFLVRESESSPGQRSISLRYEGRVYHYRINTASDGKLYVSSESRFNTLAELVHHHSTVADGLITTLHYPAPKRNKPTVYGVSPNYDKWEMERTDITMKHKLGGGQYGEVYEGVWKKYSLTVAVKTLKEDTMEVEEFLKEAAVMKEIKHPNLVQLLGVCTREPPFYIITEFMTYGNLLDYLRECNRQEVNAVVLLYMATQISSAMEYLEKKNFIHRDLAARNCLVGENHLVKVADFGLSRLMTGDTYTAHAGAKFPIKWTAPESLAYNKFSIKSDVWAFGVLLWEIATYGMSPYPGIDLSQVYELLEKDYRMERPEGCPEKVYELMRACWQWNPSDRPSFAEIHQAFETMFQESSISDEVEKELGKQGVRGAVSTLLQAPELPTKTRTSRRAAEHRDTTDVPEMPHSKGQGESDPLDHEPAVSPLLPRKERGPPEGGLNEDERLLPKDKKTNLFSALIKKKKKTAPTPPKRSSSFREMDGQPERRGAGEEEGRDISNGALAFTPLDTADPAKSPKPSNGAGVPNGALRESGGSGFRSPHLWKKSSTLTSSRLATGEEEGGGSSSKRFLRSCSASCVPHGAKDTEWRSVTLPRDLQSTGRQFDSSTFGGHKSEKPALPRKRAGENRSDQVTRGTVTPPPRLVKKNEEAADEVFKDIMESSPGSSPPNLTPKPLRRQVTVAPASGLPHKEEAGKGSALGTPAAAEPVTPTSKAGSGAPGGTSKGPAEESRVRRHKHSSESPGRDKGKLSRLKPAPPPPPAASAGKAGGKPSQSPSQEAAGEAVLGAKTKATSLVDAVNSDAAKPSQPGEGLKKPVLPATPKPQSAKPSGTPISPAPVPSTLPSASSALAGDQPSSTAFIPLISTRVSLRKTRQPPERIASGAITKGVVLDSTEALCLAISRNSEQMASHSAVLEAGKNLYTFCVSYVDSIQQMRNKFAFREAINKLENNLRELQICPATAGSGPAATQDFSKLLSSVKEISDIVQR
kinases (KINOMEscan panel) (Homo sapiens, UniProt Q00526), sequence (Q00526 whole entry): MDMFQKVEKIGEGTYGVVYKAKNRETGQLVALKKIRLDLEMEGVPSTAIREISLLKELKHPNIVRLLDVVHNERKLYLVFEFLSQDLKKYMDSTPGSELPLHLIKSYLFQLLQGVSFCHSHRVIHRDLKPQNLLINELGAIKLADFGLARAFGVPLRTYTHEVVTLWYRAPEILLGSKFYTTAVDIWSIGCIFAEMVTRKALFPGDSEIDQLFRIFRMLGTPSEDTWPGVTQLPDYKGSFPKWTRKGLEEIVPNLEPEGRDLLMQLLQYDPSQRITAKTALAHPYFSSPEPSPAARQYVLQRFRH

Cc1cccc(-c2nc(Nc3ccncc3)c3ccccc3n2)n1 [NK215]
KINOMEscan ABL1-nonphosphorylated ([1]; ABL1-nonphosphorylated): 39 | KINOMEscan ABL1-phosphorylated ([1]; ABL1-phosphorylated): 28 | KINOMEscan CDK3 [2]: 20 | KINOMEscan MAP4K2 [3]: 0 | KINOMEscan MERTK [4]: 9 | KINOMEscan CLK4 [5]: 0
